These results are taken from patent publication US20220378696A1, “TARGET DELIVERY OF NON-BIOLOGICS THROUGH NANOTECHNOLOGY FOR TISSUE REPAIR” (BOARD OF REGENTS, THE UNIVERSITY OF TEXAS SYSTEM, priority 2019, published 2022).

Data set [1] can be described thus: In vitro drug release from PLGA NPs. The class given is physicochemical. Here is the method: In vitro Drug Release. For the release studies, 1 mg each from all prepared NPs were dispersed in 1 ml of release medium (pH 7.4) each to form a suspension. Each suspension was in three replicates in 1.5 ml centrifuge tubes and incubated at 37° C. The release buffers were collected after centrifugation at 15,000 rpm for 30 min. The release buffers were replaced with fresh buffer at different periods and subjected to analysis using HPLC. The cumulative release of the model drug from each loaded NPs was plotted against time.

The nature of data set [2]: Drug encapsulation (loading) efficiency of PLGA NPs. Type of data set: physicochemical. To be noted: in PLGA NPs. On the procedure: Drug Encapsulation Efficiency. To find the amount of P188 and NAC within the NPs, P188 was fluorescently modified (TAMRA-P188) and loaded into the NPs. Fluorescence intensity of TAMRA-P188 in the supernatant was quantified over time using a plate reader. NAC was measured with high-performance liquid chromatography (HPLC). The results were converted into concentrations, and the loading efficiency for P188 and NAC were 85% and 28%, respectively, and calculated using the following equation.

Data set [3] relates to brain endothelial cells (BECs). As to the kind of experiment: Mitochondrial superoxide (MitoSox) in TNF-α stimulated brain endothelial cells. The class given is cell-based, mouse. The note with it: BECs stimulated by TNF-a (10 ng/ml) for 4 hours, then treated. On the procedure: Next tested was the potential of reparative effects of two non-biologics. One is a triblock biocompatible polymer, known as poloxamers (P188), that was approved by FDA for numerous applications. […] The other compound is N-acetylcysteine (NAC), which is also an FDA-approved antioxidant that is associated with health benefits. […] Using a fluorophore (MitoSox) that preferentially binds to superoxide, the extent of oxidative stress in response to TNF-a were recorded and quantified. Oxidative stress is an important determinant of endothelial injury, which influences a number of cellular responses by activating several intracellular signaling cascades in endothelial cells, leading to the progression of vascular diseases. […] TNF-a induced a significant increase in oxidative stress and, if left untreated, the superoxide level persisted (FIG. 3B). […] This sequence of events may be engineered to accommodate short- and long-term beneficial responses. […]
Measurement of Mitochondrial Reactive Oxygen Species (ROS). Superoxide was measured using a MitoSoX™ Red mitochondrial superoxide indicator, according to the manufacturer's instructions. […] After washing three times with PBS, images were taken with a fluorescent microscope and fluorescence intensities were calculated using Nikon ND2 software.

Data set [4] concerns MMP-2. As to the kind of experiment: MMP-2 enzyme activity assay (EnzChek) in cells exposed to microcavitation. Type of data set: cell-based, mouse. To be noted: microcavitation (5 blasts), pretreatment 2 h: doxycycline 20 mM, phenanthroline 0.5 mM. On the procedure: (§1) MMPs activities assay, Fold change, and Permeability measurement: EnzChek MMP-2 & 9 Assay Kit were used for MMP-2 & 9 activity assays. Cells were cultured in endothelial cell complete media and divided into the following groups: control (no treatment), exposed (5 blasts), doxycycline (20 mM)+exposed (5 blasts), doxycycline (20 mM), and phenanthroline (0.5 mM, positive control). Before initiating experiments, cells were washed with PBS, and no serum media was applied. Dishes in the treatment groups were pretreated with doxycycline or phenanthroline for 2 h at 37° C. Cells were exposed to microcavitation and incubated at 37° C. for 1 h. All groups were homogenized with lysis buffer containing 0.1% Triton-X 100, and protein was estimated with Pierce BCA Protein Assay Kit. Equal amounts of protein from each sample were aliquoted in lysis buffer. Samples were then analyzed using a plate reader at excitation 495 nm and 515 nm to quantitate MMP-2 & 9 activities. Primary brain endothelial cells were grown under the conditions described above. At the end of all experimental conditions, RNA from the cells was extracted and used for PCR analysis of the MMP-2 & 9 gene expressions. Finally, the permeability of the brain endothelium model exposed to doxycycline, P188, or in combination of them both was measured.

For data set [5], the system named is MMP-9. In words: MMP-9 enzyme activity assay (EnzChek) in cells exposed to microcavitation. Type of data set: cell-based, mouse. The note with it: microcavitation (5 blasts), pretreatment 2 h: doxycycline 20 mM, phenanthroline 0.5 mM. Here is the method: as §1

Where only a bound is given, the exact number is not on record here.

Turning to `CC(=O)N[C@@H](CS)C(=O)O` [NAC, N-acetylcysteine], the “time within which most of the release was achieved” value in data set [1] is not above 24 h. The compound also yielded a release in data set [1] (in 7 days) of approximately 100%. In data set [1] (pH 7.4, 37° C., linear regression), the “time required to reach a half of the maximum release” value was approximately 7.7 h. The loading efficiency in data set [2] was found to be 28%. Also, the “superoxide level (oxidative stress)” value in data set [3] is given as “noticeable attenuation of superoxide”.

On to `c1cnc2c(c1)ccc1cccnc12` [phenanthroline], for which, in data set [4], the MMP-2 enzymatic activity result was “inhibited”. In data set [5], the MMP-9 enzymatic activity result was “inhibited”.
